Experimental data from patent US11548925B2, “CACNA1H-derived tumor antigen polypeptide and use thereof” (Genoimmune Therapeutics Co., Ltd., priority 2016, dated 2023).

Columns and labels:
CD8+ T cells [1] = assay: ELISPOTs detection of IFN-γ secretion by peptide-specific CD8+ T cells; format: cell-based, human; details: ratio of spot numbers; >2 immunogenic
CD8+ T cells [2] = assay: as above; format: cell-based, human
Description: In this example, a ELISPOTs detection kit (Cat. No.: 3420-4AST-10, MABTECH) was used to verify the activation of an immune response of CD8+ T cells by the peptides of the present invention.
Principle of the ELISPOTs detection method is as follows: CD8+ T cells can specifically recognize the complex of HLA-A0201 and a peptide. The population of T cells recognizing the complex of the peptide and HLA-A0201 is varying, depending on the peptide sequence. Since T2 cells express HLA-A0201, CD8+ T cells can specifically recognize the T2 cells loaded with a peptide. After specific recognition of the complex of HLA-A0201 and the peptide, peptide-specific CD8+ T cells can be activated again to secrete IFN-γ interferon. The IFN-γ interferon secreted by the activated CD8+ T cells can be captured by antibodies on the ELISPOTs plate. Finally, the enzyme-conjugated antibody that recognizes IFN-γ can degrade the substrate through the enzyme conjugated thereto and develop color, eventually producing spots. The number of spots represents the number of cells that are activated to secrete IFN-γ interferon.
The cultured cells from Example 3 were added, along with T2 cells loaded with the mutant peptide […] (SEQ ID NO: 2) of the present invention and the wild-type peptide […] (SEQ ID NO: 1), respectively, into ELISPOTs plates, and cultured for 20 h, and then a ELISPOTs detection was performed (see the kit instruction). Finally, the spots produced by the ELISPOTs detection were counted.
The peptide was determined to have immunogenicity when the number of spots of the tested peptide/the number of spots of an unrelated peptide>2; that is, if the number of spots caused by the tested peptide is more than twice than that of an unrelated peptide, the tested peptide is determined to have immunogenicity.

[3] = test system: H2087-TLISSLMPI (SEQ ID NO: 2) subcutaneous tumor; assay: Peptide-specific DC-CTL vaccine in H2087-[…] tumor model; format: in vivo, NOD/SCID mice; details: DC-CTL activated by peptide, tail vein, about 1×10^8 cells; vs wild-type peptide group
Protocol: The human non-small cell lung adenocarcinoma cell line H2087-[…] (SEQ ID NO: 2) as established in Example 7 was cultured in DMEM medium containing 10% fetal bovine serum, 100 U/mL penicillin and 100 U/mL streptomycin in an incubator at 37° C., 5% CO2. H2087-[…] (SEQ ID NO: 2) tumor cells were collected, centrifuged at 1500 rpm for 5 min, and washed 3 times with sterile physiological saline. The tumor cells were diluted appropriately. To 40 μl of cell suspension was added 10 μl of 0.4% […] for staining and microscopically counting cells. A tumor cell suspension at a concentration of 1*10^8 cells/ml was prepared. 100 μl of the tumor cell suspension was inoculated subcutaneously into a NOD/SCID mouse or an immune-reconstituted NOD/SCID mouse. […] The long diameter a and the short diameter b of the tumor were measured with a vernier caliper every 2-3 days and the size of the tumor was calculated as a*b*b/2. The mice and tumors were weighed and recorded every day. […] The tumor volume and the survival rate of mice were recorded every 2 days. […]
The collected PBLs were subjected to magnetic bead sorting to obtain CD8+ T cells, which were sensitized by co-incubation with DCs loaded with the wild-type peptide, DCs loaded with the mutant peptide […] […] The number of lymphocytes was counted and a cell proliferation index (PI) was calculated on days 0, 7, 14, and 21 of culture, respectively. […]

TLISSLMPI [tumor antigen peptide from CACNA1H mutation, position 1428 arginine to methionine]
Fold (tested/wild-type) (CD8+ T cells [1]): 9.27
Conclusion (immunogenicity) (CD8+ T cells [2]; ELISPOTs): immunogenic
Number of spots in the mutant peptide group (CD8+ T cells [2]; T cells activated by the listed peptide, T2 cells loaded with TLISSLMPI, 20 h): 306
Number of spots in the wild-type peptide group (CD8+ T cells [2]; T cells activated by the listed peptide, T2 cells loaded with TLISSLRPI, 20 h): 33
Survival period of mice [3]: prolonged the survival period of mice
Tumor-suppressing effect [3]: significant tumor-suppressing effects
